Source: US10413557B2, “Prodrugs of 17.BETA.-HSD1-inhibitors” (FORENDO PHARMA LTD, priority 2014, dated 2019)

Columns and labels:
[1] = molecular target: T1, recombinant human 17β-HSD1 (Homo sapiens, UniProt P14061); assay: Inhibition of recombinant human 17β-HSD1 (conversion of 3H-estrone to estradiol, HPLC); assay type: biochemical; conditions: inhibitor 1 μM, 30 nM estrone, 1 mM NADPH, 30 min RT; for inhibition at 1 µM: read-out: 17β-HDS1 Inhibition % at 1 μM
T1 construct: made in house; host or cells: Sd9 (Sf9) insect cells, baculovirus (Bac to Bac Expression System)
T1 sequence (P14061 1-328): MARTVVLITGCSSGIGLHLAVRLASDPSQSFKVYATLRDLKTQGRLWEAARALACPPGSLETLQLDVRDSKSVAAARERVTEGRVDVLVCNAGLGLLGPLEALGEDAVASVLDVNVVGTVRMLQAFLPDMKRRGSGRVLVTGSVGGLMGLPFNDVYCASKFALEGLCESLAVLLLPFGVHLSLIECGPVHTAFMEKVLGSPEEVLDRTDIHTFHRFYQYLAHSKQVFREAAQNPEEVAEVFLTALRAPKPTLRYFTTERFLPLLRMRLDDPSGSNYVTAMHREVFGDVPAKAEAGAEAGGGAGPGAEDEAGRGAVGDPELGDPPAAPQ
Method: 17β-HSD1 production and isolation: Recombinant baculovirus was generated by the “Bac to Bac Expression System” (Invitrogen). Recombinant bacmid was transfected to Sd9 insect cells using “Cellfectin Reagent” (Invitrogen). 60 h later cells were harvested; the microsomal fraction was isolated as described by Puranen, T. J., Poutanen, M. H., Peltoketo, H. E., Vihko, P. T. and Vihko, R. K. (1994) Site-directed mutagenesis of the putative active site of human 17 β-hydroxysteroid dehydrogenase type 1. Biochem. J. 304: 289-293. Aliquots were stored frozen until determination of enzymatic activity.
Assay—Inhibition of recombinant human 17β-HSD1: Protein homogenate (0.1 μg/ml) was incubated in 20 mM KH2PO4 pH 7.4 with 30 nM estrone (including 800 000 cpm/ml of ^3H-estrone) and 1 mM NADPH for 30 min at RT, in the presence of the potential inhibitor at concentrations 1 μM or 0.1 μM. Inhibitor stock solutions were prepared in DMSO. Final concentration of DMSO was adjusted to 1% in all samples. The enzyme reaction was stopped by addition of 10% trichloroacetic acid (final concentration). Samples were centrifuged in a microtiter plate at 4000 rpm for 10 min. Supernatants were applied to reverse phase HPLC on a Waters Symmetry C18 column, equipped with a Waters Sentry Guard column. Isocratic HPLC runs were performed at RT at a flow rate of 1 ml/min in acetonitrile:water 48:52 as running solvent. Radioactivity was monitored in the eluate by a Packard Flow Scintillation Analyzer. Total radioactivity for estrone and estradiol were determined in each sample and percent conversion of estrone to estradiol was calculated according to the following formula:
(§1) Percent inhibition was calculated flowingly: % inhibition=100−% conversion

[2] = molecular target: T2, recombinant human 17β-HSD2 (Homo sapiens, UniProt P37059); assay: Inhibition of recombinant human 17β-HSD2 (conversion of 3H-estradiol to estrone, HPLC); assay type: biochemical; conditions: inhibitor 1 μM; 50 nM estradiol, 1 mM NADH, 30 min RT
T2 construct: made in house; host or cells: Sd9 (Sf9) insect cells, baculovirus (Bac to Bac Expression System)
T2 sequence (P37059 1-387): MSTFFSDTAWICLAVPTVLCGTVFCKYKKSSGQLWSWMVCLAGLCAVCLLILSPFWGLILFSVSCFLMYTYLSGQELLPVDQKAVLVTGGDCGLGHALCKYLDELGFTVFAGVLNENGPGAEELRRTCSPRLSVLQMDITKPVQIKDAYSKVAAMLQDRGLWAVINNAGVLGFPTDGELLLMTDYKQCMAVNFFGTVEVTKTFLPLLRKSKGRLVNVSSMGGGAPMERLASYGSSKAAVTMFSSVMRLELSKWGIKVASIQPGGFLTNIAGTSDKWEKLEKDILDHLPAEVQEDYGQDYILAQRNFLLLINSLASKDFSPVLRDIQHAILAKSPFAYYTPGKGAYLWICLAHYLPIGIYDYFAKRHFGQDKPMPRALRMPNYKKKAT
Method: 17β-HSD2 production and isolation: Similarly to 17β-HSD1 the Recombinant baculovirus was generated by the “Bac to Bac Expression System” (Invitrogen). Recombinant bacmid was transfected to Sd9 insect cells using “Cellfectin Reagent” (Invitrogen). 60 h later cells were harvested and supernatant were fractionated by the following protocol: • cells were dissolved into 40 ml of A-buffer (40 mM TRIS, pH8.0, 20% glycerol, 20 μM NAD, 0.4 mM PMSF, 150 mM NaCl, 0.5% dodecyl-β-maltoside+protease inhibitor cocktail) • cells were sonicated • lysate was incubated on ice for 15 min • lysate was centrifuged 5000 rpm 15 min, +4° C. • centrifugation of the supernatant 180 000 g 30 min, +4° C. • pellet was dissolved into 8 ml of A-buffer • not resuspended material was removed by centrifugation 5000 rpm 15 min, +4° C. • the clear supernatant was divided into 100 μl aliquots and were stored frozen until determination of enzymatic activity.
The amount of 17β-HSD2 was analysed by immunoblotting and total protein concentration of each extract batch was determined.
Assay—Inhibition of recombinant human 17β-HSD2: Protein homogenate (4 μg/ml) was incubated in 20 mM KH2PO4 pH 8.5 with 50 nM estradiol (including 800 000 cpm/ml of ^3H-estradiol) and 1 mM […] for 30 min at RT, in the presence of the potential inhibitor at concentrations 1 μM or 0.1 μM. Inhibitor stock solutions were prepared in DMSO. Final concentration of DMSO was adjusted to 1% in all samples. The enzyme reaction was stopped by addition of 10% trichloroacetic acid (final concentration). Samples were centrifuged in a microtiter plate at 4000 rpm for 10 min. Supernatants were applied to reverse phase HPLC on a Waters Symmetry C18 column, equipped with a Waters Sentry Guard column. Isocratic HPLC runs were performed at RT at a flow rate ofl ml/min in acetonitrile:water 48:52 as running solvent. Radioactivity was monitored in the eluate by a Packard Flow Scintillation Analyzer. Total radioactivity for estrone and estradiol were determined in each sample and percent conversion of estradiol to estrone was calculated according to the following formula:
as §1

[3] = Metabolic stability assay; assay type: in vitro ADME; conditions: human liver homogenate or microsomes
Method: The in vitro metabolic stability of the parent compounds was determined for exemplified compounds using human liver microsome and homogenate incubations. The incubation time points used with or without appropriate cofactors were 0 min and 60 min. Samples were collected at both time points and substrates were detected using LC/PDA/TOF-MS. In vitro metabolic stability (% remaining after 60 min in human liver homogenate or microsomes) of the compounds were calculated and the results are summarized in Table 4.

3-{(13S,15R)-2-Fluoro-3-hydroxy-17-[(E)-methoxyimino]-13-methyl-7,8,9,11,12,13,14,15,16,17-decahydro-6H-cyclopenta[a]phenanthren-15-yl}-N-(5-methylthiazol-2-yl)propanamide [VIV-15]
17β-HDS1 Inhibition % at 1 μM [1]: 94%
17β-HSD2 Inhibition % at 1 μM [2]: 5%
In vitro metabolic stability, % remaining after 60 min [3]: 92%

3-{(13S,15R)-4-Fluoro-3-hydroxy-17-[(E)-methoxyimino]-13-methyl-7,8,9,11,12,13,14,15,16,17-decahydro-6H-cyclopenta[a]phenanthren-15-yl}-N-(5-methylthiazol-2-yl)propanamide [VIV-16]
17β-HDS1 Inhibition % at 1 μM [1]: 90%
17β-HSD2 Inhibition % at 1 μM [2]: 7%
In vitro metabolic stability, % remaining after 60 min [3]: 68%

Cc1cnc(NC(=O)CC[C@@H]2CC(=O)[C@@]3(C)CCC4c5ccc(O)cc5CCC4C23)s1 (some centres unmarked) [VII, reference compound]
In vitro metabolic stability, % remaining after 60 min [3]: 13%

CO/N=C1\C[C@@H](CCC(=O)Nc2ncc(C)s2)C2C3CCc4cc(O)c(Br)cc4C3CC[C@]12C (stereo partly drawn) [VIV-9, 3-{(13S,15R)-2-Bromo-3-hydroxy-17-[(E)-methoxyimino]-13-methyl-7,8,9,11,12,13,14,15,16,17-decahydro-6H-cyclopenta[a]phenanthren-15-yl}-N-(5-methylthiazol-2-yl)-propanamide]
inhibition at 1 µM [1]: 81%
inhibition at 1 µM [2]: 1%
In vitro metabolic stability, % remaining after 60 min [3]: 34%

CO/N=C1\C[C@@H](CCC(=O)Nc2ncc(C)s2)C2C3CCc4cc(O)c(Cl)cc4C3CC[C@]12C (stereo partly drawn) [VIV-12, 3-{(13S,15R)-2-Chloro-3-hydroxy-17-[(E)-methoxyimino]-13-methyl-7,8,9,11,12,13,14,15,16,17-decahydro-6H-cyclopenta[a]phenanthren-15-yl}-N-(5-methylthiazol-2-yl)propanamide]
inhibition at 1 µM [1]: 95%
inhibition at 1 µM [2]: 3%
In vitro metabolic stability, % remaining after 60 min [3]: 94%

Cc1cnc(NC(=O)CC[C@@H]2C/C(=N\O)[C@@]3(C)CCC4c5ccc(O)c([N+](=O)[O-])c5CCC4C23)s1 (stereo partly drawn) [VIV-24, 3-{(13S,15R)-3-Hydroxy-4-nitro-17-[(E)-hydroxyimino]-13-methyl-7,8,9,11,12,13,14,15,16,17-decahydro-6H-cyclopenta[a]phenanthren-15-yl}-N-(5-methylthiazol-2-yl)propanamide]
inhibition at 1 µM [1]: 96%
inhibition at 1 µM [2]: 33%

Cc1cnc(NC(=O)CC[C@@H]2C/C(=N\O)[C@@]3(C)CCC4c5cc(Br)c(O)cc5CCC4C23)s1 (stereo partly drawn) [VIV-25, 3-{(13S,15R)-2-Bromo-3-hydroxy-17-[(E)-hydroxyimino]-13-methyl-7,8,9,11,12,13,14,15,16,17-decahydro-6H-cyclopenta[a]phenanthren-15-yl}-N-(5-methylthiazol-2-yl)propanamide]
inhibition at 1 µM [1]: 77%
inhibition at 1 µM [2]: 25%

Cc1cnc(NC(=O)CC[C@@H]2C/C(=N\O)[C@@]3(C)CCC4c5ccc(O)c(Br)c5CCC4C23)s1 (stereo partly drawn) [VIV-26, 3-{(13S,15R)-4-Bromo-3-hydroxy-17-[(E)-hydroxyimino]-13-methyl-7,8,9,11,12,13,14,15,16,17-decahydro-6H-cyclopenta[a]phenanthren-15-yl}-N-(5-methylthiazol-2-yl)propanamide]
inhibition at 1 µM [1]: 89%
inhibition at 1 µM [2]: 15%

Cc1cnc(NC(=O)CC[C@@H]2C/C(=N\O)[C@@]3(C)CCC4c5cc(Br)c(O)c(Br)c5CCC4C23)s1 (stereo partly drawn) [VIV-27, 3-{(13S,15R)-2,4-Dibromo-3-hydroxy-17-[(E)-hydroxyimino]-13-methyl-7,8,9,11,12,13,14,15,16,17-decahydro-6H-cyclopenta[a]phenanthren-15-yl}-N-(5-methylthiazol-2-yl)propanamide]
inhibition at 1 µM [1]: 98%
inhibition at 1 µM [2]: 28%

Cc1cnc(NC(=O)CC[C@@H]2C/C(=N\O)[C@@]3(C)CCC4c5cc(Cl)c(O)cc5CCC4C23)s1 (stereo partly drawn) [VIV-28, 3-{(13S,15R)-2-Chloro-3-hydroxy-17-[(E)-hydroxyimino]-13-methyl-7,8,9,11,12,13,14,15,16,17-decahydro-6H-cyclopenta[a]phenanthren-15-yl}-N-(5-methylthiazol-2-yl)propanamide]
inhibition at 1 µM [1]: 98%
inhibition at 1 µM [2]: 21%

Cc1cnc(NC(=O)CC[C@@H]2C/C(=N\O)[C@@]3(C)CCC4c5ccc(O)c(Cl)c5CCC4C23)s1 (stereo partly drawn) [VIV-29, 3-{(13S,15R)-4-Chloro-3-hydroxy-17-[(E)-hydroxyimino]-13-methyl-7,8,9,11,12,13,14,15,16,17-decahydro-6H-cyclopenta[a]phenanthren-15-yl}-N-(5-methylthiazol-2-yl)propanamide]
inhibition at 1 µM [1]: 98%
inhibition at 1 µM [2]: 21%

Cc1cnc(NC(=O)CC[C@@H]2C/C(=N\O)[C@@]3(C)CCC4c5cc(Cl)c(O)c(Cl)c5CCC4C23)s1 (stereo partly drawn) [VIV-30, 3-{(13S,15R)-2,4-Dichloro-3-hydroxy-17-[(E)-hydroxyimino]-13-methyl-7,8,9,11,12,13,14,15,16,17-decahydro-6H-cyclopenta[a]phenanthren-15-yl}-N-(5-methylthiazol-2-yl)propanamide]
inhibition at 1 µM [1]: 87%
inhibition at 1 µM [2]: 23%

Cc1cnc(NC(=O)CC[C@@H]2C/C(=N\O)[C@@]3(C)CCC4c5cc(F)c(O)cc5CCC4C23)s1 (stereo partly drawn) [VIV-31, 3-{(13S,15R)-2-Fluoro-3-hydroxy-17-[(E)-hydroxyimino]-13-methyl-7,8,9,11,12,13,14,15,16,17-decahydro-6H-cyclopenta[a]phenanthren-15-yl}-N-(5-methylthiazol-2-yl)propanamide]
inhibition at 1 µM [1]: 97%
inhibition at 1 µM [2]: 14%
